According to patent US6461997B1, “Triazole sulfones having herbicidal activity” (Monsanto Technology LLC, priority 1999, dated 2002):

system: CIRAR (canada thistle (seedling)); assay: Pre-plant incorporated (PPI) herbicidal activity, warm season; format: in vivo, Cirsium arvense; conditions: GR80 = lowest tested rate with 80% or greater inhibition, approx. 14 days after treating, 30/21° C.
Method: (§1) In another set of tests, the pre-plant incorporated (PPI) activity of compounds of this invention was evaluated on the same species as for the pre-emergence tests described above. In the PPI tests the following procedure, designed to simulate PPI application, was used.
(§2) A pre-prepared topsoil mixture (described above) was placed in a pot and compacted to a depth of 1.0 to 1.25 cm from the top of the pot. Seeds of each of several monocotyledonous and dicotyledonous annual plant species were placed on top of the soil. A sufficient quantity of soil to cover the seeds and level fill the pot was weighed into an open container. A known amount of the test compound was dissolved or suspended in an organic solvent and applied by spraying to this cover soil. The cover soil was thoroughly mixed to distribute the test compound throughout the cover soil, and was then applied as a cover layer over the seeds. Untreated soil was used as a cover layer for control pots. After treatment the plants were placed in a greenhouse where they received 0.64 cm of overhead irrigation. All subsequent watering consisted of a light overhead mist and/or subirrigation as needed for germination and growth. Tables 9 and 10 below relate to warm season plant species which were placed after pre-emergence treatment in a greenhouse with a 30/21° C. day/night temperature regime. Tables 11 and 12 below relates to cool season plant species placed after pre-emergence treatment in a greenhouse or growth chamber with an 18/13° C. day/night temperature regime. Only the compounds of Examples 1, 6, 8, 11, 13 and 15-20 were included in PPI tests.
(§3) Approximately 14 days after planting and treating, the plants were observed and herbicidal efficacy recorded as percent inhibition by comparison with untreated plants.

| Structure (SMILES) | PPI activity (GR80) CIRAR [g/ha] |
| --- | --- |
| C=C(C)CC(F)(F)S(=O)(=O)c1ncn(C(=O)N(CC)CC)n1 [Example 18] | 30 |
| CCN(CC)C(=O)n1cnc(S(=O)(=O)C(F)(F)SCCOC)n1 [Example 13] | 100 |

system: LOLMG (annual ryegrass); assay: Pre-emergence herbicidal activity, cool season; format: in vivo, Lolium multiflorum; conditions: GR80 = lowest tested rate (300, 100, 30, 10 g/ha) with 80% or greater inhibition; approx. 14 days after treating; 18/13° C.
In short: (§4)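 Seeds sown in sterilised fertilised topsoil received surface-applied compound in 50:50 acetone/water, typically at 300, 100, 30 and 10 g/ha, then greenhouse-grown at 30/21° C (warm-season species) or 18/13° C (cool-season species). Percent inhibition versus untreated plants was scored at about 14 days, giving GR80; an asterisk marks activity short of 80% at the top rate.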

| Structure (SMILES) | Pre-emergence activity (GR80) LOLMG [g/ha] |
| --- | --- |
| C=C(C)CC(F)(F)S(=O)(=O)c1ncn(C(=O)N(CC)CC)n1 [Example 18] | 300 |

system: KCHSC (kochia); assay: Pre-plant incorporated (PPI) herbicidal activity, cool season; format: in vivo, Kochia scoparia; conditions: Bassia scoparia; weed, PPI application, 10 g/ha; read-out: Percent inhibition KCHSC
Method: as §1, §2, §3

| Structure (SMILES) | inhibition at 10 g/ha [%] |
| --- | --- |
| C=C(C)CC(F)(F)S(=O)(=O)c1ncn(C(=O)N(CC)CC)n1 [Example 18] | 40 |

same assay, conditions: Bassia scoparia; weed, PPI application, 30 g/ha; read-out: Percent inhibition KCHSC

| Structure (SMILES) | inhibition at 30 g/ha [%] |
| --- | --- |
| C=C(C)CC(F)(F)S(=O)(=O)c1ncn(C(=O)N(CC)CC)n1 [Example 18] | 80 |

same assay, conditions: Bassia scoparia; weed, PPI application, 100 g/ha; read-out: Percent inhibition KCHSC

| Structure (SMILES) | inhibition at 100 g/ha [%] |
| --- | --- |
| C=C(C)CC(F)(F)S(=O)(=O)c1ncn(C(=O)N(CC)CC)n1 [Example 18] | 80 |

same assay, conditions: Bassia scoparia; weed, PPI application, 300 g/ha; read-out: Percent inhibition KCHSC

| Structure (SMILES) | inhibition at 300 g/ha [%] |
| --- | --- |
| C=C(C)CC(F)(F)S(=O)(=O)c1ncn(C(=O)N(CC)CC)n1 [Example 18] | 100 |

same assay, conditions: Bassia scoparia; weed, PPI application, 900 g/ha; read-out: Percent inhibition KCHSC

| Structure (SMILES) | inhibition at 900 g/ha [%] |
| --- | --- |
| C=C(C)CC(F)(F)S(=O)(=O)c1ncn(C(=O)N(CC)CC)n1 [Example 18] | 100 |

same assay, conditions: pre-plant incorporated; lowest tested rate with 80% or greater inhibition; about 14 days

| Structure (SMILES) | PPI activity GR80, KCHSC |
| --- | --- |
| CCN(CC)C(=O)n1cnc(S(=O)(=O)C(F)(F)SCCOC)n1 [Example 13] | * (activity observed, at least at highest rate, but <80% inhibition) |

system: SASKR (russian thistle); assay: as above; format: in vivo, Salsola kali; conditions: Salsola kali; weed, PPI application, 10 g/ha; read-out: Percent inhibition SASKR
Method: as §1, §2, §3

| Structure (SMILES) | inhibition at 10 g/ha [%] |
| --- | --- |
| C=C(C)CC(F)(F)S(=O)(=O)c1ncn(C(=O)N(CC)CC)n1 [Example 18] | 0 |

same assay, conditions: Salsola kali; weed, PPI application, 30 g/ha; read-out: Percent inhibition SASKR

| Structure (SMILES) | inhibition at 30 g/ha [%] |
| --- | --- |
| C=C(C)CC(F)(F)S(=O)(=O)c1ncn(C(=O)N(CC)CC)n1 [Example 18] | 0 |

same assay, conditions: Salsola kali; weed, PPI application, 100 g/ha; read-out: Percent inhibition SASKR

| Structure (SMILES) | inhibition at 100 g/ha [%] |
| --- | --- |
| C=C(C)CC(F)(F)S(=O)(=O)c1ncn(C(=O)N(CC)CC)n1 [Example 18] | 80 |

same assay, conditions: Salsola kali; weed, PPI application, 300 g/ha; read-out: Percent inhibition SASKR

| Structure (SMILES) | inhibition at 300 g/ha [%] |
| --- | --- |
| C=C(C)CC(F)(F)S(=O)(=O)c1ncn(C(=O)N(CC)CC)n1 [Example 18] | 80 |

same assay, conditions: Salsola kali; weed, PPI application, 900 g/ha; read-out: Percent inhibition SASKR

| Structure (SMILES) | inhibition at 900 g/ha [%] |
| --- | --- |
| C=C(C)CC(F)(F)S(=O)(=O)c1ncn(C(=O)N(CC)CC)n1 [Example 18] | 100 |

same assay, conditions: pre-plant incorporated; lowest tested rate with 80% or greater inhibition; about 14 days

| Structure (SMILES) | PPI activity GR80, SASKR [g/ha] |
| --- | --- |
| C=C(C)CC(F)(F)S(=O)(=O)c1ncn(C(=O)N(CC)CC)n1 [Example 18] | 30 |
| CCN(CC)C(=O)n1cnc(S(=O)(=O)C(F)(F)SCCOC)n1 [Example 13] | 300 |

same assay, conditions: weed, PPI application, 10 g/ha

| Structure (SMILES) | Percent inhibition SASKR [%] |
| --- | --- |
| CCN(CC)C(=O)n1cnc(S(=O)(=O)C(F)(F)SCCOC)n1 [Example 13] | 20 |

same assay, conditions: weed, PPI application, 30 g/ha

| Structure (SMILES) | Percent inhibition SASKR [%] |
| --- | --- |
| CCN(CC)C(=O)n1cnc(S(=O)(=O)C(F)(F)SCCOC)n1 [Example 13] | 30 |

same assay, conditions: weed, PPI application, 100 g/ha

| Structure (SMILES) | Percent inhibition SASKR [%] |
| --- | --- |
| CCN(CC)C(=O)n1cnc(S(=O)(=O)C(F)(F)SCCOC)n1 [Example 13] | 80 |

same assay, conditions: weed, PPI application, 300 g/ha

| Structure (SMILES) | Percent inhibition SASKR [%] |
| --- | --- |
| CCN(CC)C(=O)n1cnc(S(=O)(=O)C(F)(F)SCCOC)n1 [Example 13] | 100 |

same assay, conditions: weed, PPI application, 900 g/ha

| Structure (SMILES) | Percent inhibition SASKR [%] |
| --- | --- |
| CCN(CC)C(=O)n1cnc(S(=O)(=O)C(F)(F)SCCOC)n1 [Example 13] | 100 |

system: CONAR (field bindweed); assay: Pre-plant incorporated (PPI) herbicidal activity, warm season; format: in vivo, Convolvulus arvensis; conditions: GR80 = lowest tested rate with 80% or greater inhibition, approx. 14 days after treating, 30/21° C.
Method: as §1, §2, §3

| Structure (SMILES) | PPI activity (GR80) CONAR |
| --- | --- |
| C=C(C)CC(F)(F)S(=O)(=O)c1ncn(C(=O)N(CC)CC)n1 [Example 18] | 100 g/ha |
| CCN(CC)C(=O)n1cnc(S(=O)(=O)C(F)(F)SCCOC)n1 [Example 13] | * (activity observed, at least at highest rate, but <80% inhibition) |

system: POROL (common purslane); assay: as above; format: in vivo, Portulaca oleracea; conditions: GR80 = lowest tested rate with 80% or greater inhibition, approx. 14 days after treating, 30/21° C.
Method: as §1, §2, §3

| Structure (SMILES) | PPI activity (GR80) POROL [g/ha] |
| --- | --- |
| C=C(C)CC(F)(F)S(=O)(=O)c1ncn(C(=O)N(CC)CC)n1 [Example 18] | 100 |
| CCN(CC)C(=O)n1cnc(S(=O)(=O)C(F)(F)SCCOC)n1 [Example 13] | 100 |

system: ABUTH (velvetleaf); assay: Pre-emergence herbicidal activity, warm season; format: in vivo, Abutilon theophrasti; conditions: GR80 = lowest tested rate (300, 100, 30, 10 g/ha) with 80% or greater inhibition; approx. 14 days after treating; 30/21° C.
In short: as §4

| Structure (SMILES) | Pre-emergence activity (GR80) ABUTH |
| --- | --- |
| C=C(C)CC(F)(F)S(=O)(=O)c1ncn(C(=O)N(CC)CC)n1 [Example 18] | * (activity observed, at least at highest rate, but <80% inhibition) |
| CCN(CC)C(=O)n1cnc(S(=O)(=O)C(F)(F)SCCOC)n1 [Example 13] | 300 g/ha |

system: IPOSS (annual morningglory); assay: Pre-plant incorporated (PPI) herbicidal activity, warm season; format: in vivo, Ipomoea spp.; conditions: PPI application, 10 g/ha
Method: as §1, §2, §3

| Structure (SMILES) | Percent inhibition IPOSS [%] |
| --- | --- |
| CCN(CC)C(=O)n1cnc(S(=O)(=O)C(F)(F)SCCOC)n1 [Example 13] | 0 |

same assay, conditions: PPI application, 30 g/ha

| Structure (SMILES) | Percent inhibition IPOSS [%] |
| --- | --- |
| CCN(CC)C(=O)n1cnc(S(=O)(=O)C(F)(F)SCCOC)n1 [Example 13] | 0 |

same assay, conditions: PPI application, 100 g/ha

| Structure (SMILES) | Percent inhibition IPOSS [%] |
| --- | --- |
| CCN(CC)C(=O)n1cnc(S(=O)(=O)C(F)(F)SCCOC)n1 [Example 13] | 0 |

same assay, conditions: PPI application, 300 g/ha

| Structure (SMILES) | Percent inhibition IPOSS [%] |
| --- | --- |
| CCN(CC)C(=O)n1cnc(S(=O)(=O)C(F)(F)SCCOC)n1 [Example 13] | 10 |

same assay, conditions: PPI application, 900 g/ha

| Structure (SMILES) | Percent inhibition IPOSS [%] |
| --- | --- |
| CCN(CC)C(=O)n1cnc(S(=O)(=O)C(F)(F)SCCOC)n1 [Example 13] | 100 |

system: BROTE (downy brome); assay: Pre-emergence herbicidal activity, cool season; format: in vivo, Bromus tectorum; conditions: GR80 = lowest tested rate (300, 100, 30, 10 g/ha) with 80% or greater inhibition; approx. 14 days after treating; 18/13° C.
In short: as §4

| Structure (SMILES) | Pre-emergence activity (GR80) BROTE [g/ha] |
| --- | --- |
| C=C(C)CC(F)(F)S(=O)(=O)c1ncn(C(=O)N(CC)CC)n1 [Example 18] | 300 |
| CCN(CC)C(=O)n1cnc(S(=O)(=O)C(F)(F)SCCOC)n1 [Example 13] | 300 |

system: DATST (jimsonweed); assay: Pre-emergence herbicidal activity, warm season; format: in vivo, Datura stramonium; conditions: GR80 = lowest tested rate (300, 100, 30, 10 g/ha) with 80% or greater inhibition; approx. 14 days after treating; 30/21° C.
In short: as §4

| Structure (SMILES) | Pre-emergence activity (GR80) DATST [g/ha] |
| --- | --- |
| C=C(C)CC(F)(F)S(=O)(=O)c1ncn(C(=O)N(CC)CC)n1 [Example 18] | 300 |

system: AGRRE (quackgrass (seedling)); assay: Pre-emergence herbicidal activity, cool season; format: in vivo, Elymus repens; conditions: GR80 = lowest tested rate (300, 100, 30, 10 g/ha) with 80% or greater inhibition; approx. 14 days after treating; 18/13° C.
In short: as §4

| Structure (SMILES) | Pre-emergence activity (GR80) AGRRE [g/ha] |
| --- | --- |
| C=C(C)CC(F)(F)S(=O)(=O)c1ncn(C(=O)N(CC)CC)n1 [Example 18] | 300 |

system: AVEFA (wild oat); assay: Pre-emergence herbicidal activity, cool season; format: in vivo, Avena fatua; conditions: GR80 = lowest tested rate (300, 100, 30, 10 g/ha) with 80% or greater inhibition; approx. 14 days after treating; 18/13° C.
In short: as §4

| Structure (SMILES) | Pre-emergence activity (GR80) AVEFA |
| --- | --- |
| C=C(C)CC(F)(F)S(=O)(=O)c1ncn(C(=O)N(CC)CC)n1 [Example 18] | * (activity observed, at least at highest rate, but <80% inhibition) |
| CCN(CC)C(=O)n1cnc(S(=O)(=O)C(F)(F)SCCOC)n1 [Example 13] | 300 g/ha |
